Experimental data as given in US9981972B2, “N-hydroxy bicyclic hydantoin carbamates as tools for identification of serine hydrolase targets” (ABIDE THERAPEUTICS, INC., priority 2014, dated 2018).

Assays:
Test in all cases: Gel-based competitive ABPP in vitro, mouse brain membrane proteome
Assay type in all cases: biochemical
Conditions in all cases: mouse brain (mem) proteome
[1] = biological target: T1, LYPLA1 (Mus musculus, UniProt P97823)
T1 construct: a complex proteome endogenously expressing LYPLA1/2 was incubated with test compound; from tissue; host or cells: mouse brain, membrane fraction
T1 sequence (P97823 whole entry): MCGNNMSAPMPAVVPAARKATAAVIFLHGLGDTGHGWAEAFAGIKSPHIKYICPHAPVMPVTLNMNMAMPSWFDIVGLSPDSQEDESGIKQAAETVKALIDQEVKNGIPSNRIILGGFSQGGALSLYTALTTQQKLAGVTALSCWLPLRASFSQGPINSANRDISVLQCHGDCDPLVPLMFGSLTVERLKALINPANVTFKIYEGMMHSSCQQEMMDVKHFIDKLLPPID
Method in brief: (§1)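 Mouse brain membrane proteome (1 mg/mL in DPBS) was treated with compound (0.1-100 μM) for 30 min at 37 °C, then labeled with FP-Rh (2 μM final, 30 min, 25 °C). Bands were resolved by SDS-PAGE and scanned in-gel, with inhibition taken from band optical density versus DMSO. Targets counted as active or anti-targets at ≥50% inhibition.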

[2] = biological target: T2, LYPLA2 (Mus musculus, UniProt Q9WTL7)
T2 construct: a complex proteome endogenously expressing LYPLA1/2 was incubated with test compound; from tissue; host or cells: mouse brain, membrane fraction
T2 sequence (Q9WTL7 whole entry): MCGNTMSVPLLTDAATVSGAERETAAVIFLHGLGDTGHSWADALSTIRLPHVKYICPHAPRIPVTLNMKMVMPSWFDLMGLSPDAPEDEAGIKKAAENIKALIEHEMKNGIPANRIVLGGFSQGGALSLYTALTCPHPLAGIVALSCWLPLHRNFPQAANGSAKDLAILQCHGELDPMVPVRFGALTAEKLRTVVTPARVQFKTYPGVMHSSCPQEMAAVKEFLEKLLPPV
Method in brief: as §1

[3] = biological target: T3, ABHD12 (Mus musculus, UniProt Q99LR1)
T3 construct: from tissue; host or cells: mouse brain, membrane fraction
T3 sequence (Q99LR1 1-398): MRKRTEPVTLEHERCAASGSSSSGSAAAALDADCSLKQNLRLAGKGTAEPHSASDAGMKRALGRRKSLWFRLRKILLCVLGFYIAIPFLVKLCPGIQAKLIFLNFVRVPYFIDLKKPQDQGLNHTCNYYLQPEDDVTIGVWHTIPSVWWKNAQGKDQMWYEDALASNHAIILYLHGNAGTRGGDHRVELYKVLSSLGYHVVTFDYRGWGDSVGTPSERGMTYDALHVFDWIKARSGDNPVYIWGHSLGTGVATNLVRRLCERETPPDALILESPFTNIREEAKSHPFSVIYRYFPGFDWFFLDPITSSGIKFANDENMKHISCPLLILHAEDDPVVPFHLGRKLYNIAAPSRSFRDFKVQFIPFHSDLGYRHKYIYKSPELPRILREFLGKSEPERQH
Protocol: (§2) Assay Overview: The purpose of this assay was to determine whether test compounds can inhibit LYPLA1 and LYPLA2 in a complex proteomic lysate and to assess anti-target inhibition using a competitive activity-based proteomic profiling (ABPP) assay. In this assay, a complex proteome endogenously expressing LYPLA1/2 was incubated with test compound followed by reaction with a rhodamine-conjugated fluorophosphonate (FP-Rh) serine-hydrolase specific activity-based probe. The reaction products were separated by SDS-PAGE and visualized in-gel using a flatbed fluorescence scanner. The percentage activity remaining was determined by measuring the integrated optical density of the bands. […] Percent inhibition was calculated relative to a DMSO (no compound) control.
(§3) Protocol Summary: Mouse brain membrane proteome (50 μL reaction volume, 1 mg/mL in DPBS) was treated with 0.1-100 μM test compound (1 μL of a 50× stock in DMSO) for 30 minutes at 37° C. FP-Rh (1 μL of 50× stock in DMSO, Thermo #88318) was added to a final concentration of 2 μM. The reactions were incubated for 30 minutes at 25° C., quenched with 16 μL 4×SDS-PAGE loading buffer (reducing), separated by SDS-PAGE and visualized by in-gel fluorescent scanning. The percentage activity remaining was determined by measuring the integrated optical density of the bands relative to a DMSO-only (no compound) control. Assay Cutoff: Compounds with ≥50% inhibition of targets at 1 μM test compound concentration were considered active.

[4] = biological target: T4, ABHD3 (Mus musculus, UniProt Q91ZH7)
T4 construct: from tissue; host or cells: mouse brain, membrane fraction
T4 sequence (Q91ZH7 1-411): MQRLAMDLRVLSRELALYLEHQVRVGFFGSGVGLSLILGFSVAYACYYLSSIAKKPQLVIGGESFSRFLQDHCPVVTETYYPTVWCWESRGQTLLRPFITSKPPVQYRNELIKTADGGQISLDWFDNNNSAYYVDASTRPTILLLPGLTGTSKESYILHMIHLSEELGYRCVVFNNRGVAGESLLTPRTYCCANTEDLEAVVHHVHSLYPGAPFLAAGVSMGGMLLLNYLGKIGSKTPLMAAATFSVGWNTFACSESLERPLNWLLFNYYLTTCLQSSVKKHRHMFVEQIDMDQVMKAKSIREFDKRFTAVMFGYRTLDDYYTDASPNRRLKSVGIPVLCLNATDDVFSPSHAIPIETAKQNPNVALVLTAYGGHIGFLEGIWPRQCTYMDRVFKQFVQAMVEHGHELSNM
Protocol: as §2, §3

[5] = biological target: T5, PLA2G7 (Mus musculus, UniProt Q60963)
T5 construct: from tissue; host or cells: mouse brain, membrane fraction
T5 sequence (Q60963 22-440): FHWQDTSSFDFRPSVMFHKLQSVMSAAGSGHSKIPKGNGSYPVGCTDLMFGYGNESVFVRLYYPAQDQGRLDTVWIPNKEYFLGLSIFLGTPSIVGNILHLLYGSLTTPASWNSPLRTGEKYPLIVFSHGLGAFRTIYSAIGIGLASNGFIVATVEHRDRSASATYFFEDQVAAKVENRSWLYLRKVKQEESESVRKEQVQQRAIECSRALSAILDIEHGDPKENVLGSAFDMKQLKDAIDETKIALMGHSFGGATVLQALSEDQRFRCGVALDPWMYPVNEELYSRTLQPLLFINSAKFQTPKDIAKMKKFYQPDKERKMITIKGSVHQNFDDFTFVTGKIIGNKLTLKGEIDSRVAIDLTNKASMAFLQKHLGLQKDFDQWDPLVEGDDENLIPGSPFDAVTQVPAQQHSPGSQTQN
Protocol: as §2, §3

Row | SMILES | LYPLA1 in vitro enzyme activity, % @ 1 μM [1] [% @] | LYPLA2 in vitro enzyme activity, % @ 1 μM [2] [% @] | ABHD12 in vitro enzyme activity, % @ 10 μM [3] [% @] | ABHD3 in vitro enzyme activity, % @ 10 μM [4] [% @] | PLA2G7 in vitro enzyme activity, % @ 10 μM [5] [% @] | LYPLA1 in vitro enzyme activity, % @ 10 μM ([1]; 10 μM) [% @] | LYPLA2 in vitro enzyme activity, % @ 10 μM ([2]; 10 μM) [% @] | PLA2G7 in vitro enzyme activity, % @ 1 μM ([5]; 1 μM) [% @]
1 | C#Cc1ccc(CCC2CCN(C(=O)ON3C(=O)[C@H]4CN(C(=O)N5CCOCC5)CCN4C3=O)CC2)cc1 [Compound 49, (R)-7-(morpholine-4-carbonyl)-1,3-dioxo-hexahydroimidazo[1,5-a]pyrazin-2(3H)-yl 4-(4-ethynylphenethyl)piperidine-1-carboxylate] | 75 | 75 | 0 | 0 | 100 |  |  | 
2 | O=C(ON1C(=O)[C@@H]2CN(C(=O)N3CCOCC3)CCN2C1=O)N1CCC(CCc2ccc(Cl)cc2)CC1 [Compound 50, (S)-7-(morpholine-4-carbonyl)-1,3-dioxohexahydroimidazo[1,5-a]pyrazin-2(3H)-yl 4-(4-chloro-phenethyl)piperidine-1-carboxylate] | 100 | 100 | 0 | 0 | 100 |  |  | 
3 | O=C(ON1C(=O)[C@H]2CN(C(=O)N3CCOCC3)CCN2C1=O)N1CCC(CCc2ccc(Cl)cc2)CC1 [Compound 51, (R)-7-(morpholine-4-carbonyl)-1,3-dioxohexahydroimidazo[1,5-a]pyrazin-2(3H)-yl 4-(4-chloro-phenethyl)piperidine-1-carboxylate] | 100 | 100 | 0 | 0 | 100 |  |  | 

Further lines, results first:

Row | LYPLA1 in vitro enzyme activity, % @ 1 μM [1] [% @] | LYPLA2 in vitro enzyme activity, % @ 1 μM [2] [% @] | ABHD12 in vitro enzyme activity, % @ 10 μM [3] [% @] | ABHD3 in vitro enzyme activity, % @ 10 μM [4] [% @] | PLA2G7 in vitro enzyme activity, % @ 10 μM [5] [% @] | LYPLA1 in vitro enzyme activity, % @ 10 μM ([1]; 10 μM) [% @] | LYPLA2 in vitro enzyme activity, % @ 10 μM ([2]; 10 μM) [% @] | PLA2G7 in vitro enzyme activity, % @ 1 μM ([5]; 1 μM) [% @] | SMILES
4 |  |  | 0 | 0 |  | 0 | 0 | 50 | COc1ccc(N2CCN(C(=O)ON3C(=O)C4CN(CC5CCN(Cc6ccccc6)CC5)CCN4C3=O)CC2)cc1 (stereo not shown) [Compound 52, 7-((1-benzylpiperidin-4-yl)methyl)-1,3-dioxo-hexahydroimidazo[1,5-a]pyrazin-2(3H)-yl 4-(4-methoxyphenyl)piperazine-1-carboxylate]
5 | 75 | 75 | 50 | 0 | 0 |  |  |  | C#Cc1ccc(CCC2CCN(C(=O)ON3C(=O)C4CN(C(=O)N5CCOCC5)CCN4C3=O)CC2)cc1 (stereo not shown) [Compound 53, 7-(morpholine-4-carbonyl)-1,3-dioxo-hexahydroimidazo[1,5-a]pyrazin-2(3H)-yl 4-(4-ethynylphenethyl)piperidine-1-carboxylate]
